{"source": "patent US20160031937A1", "about": "“NEURAL REGENERATION PEPTIDES AND USES THEREFOR” (CURONZ HOLDINGS COMPANY LIMITED, priority 2013, published 2016)", "test_system": "human DU-145 prostate cancer cells", "experiment": "DU-145 Boyden chamber motility bioassay", "format": "cell-based", "conditions": "0.1 ng/ml NRP2945 adhered to Boyden chamber bottom plate, 24 hours of incubation", "text": "Human epithelial DU-145 cells were obtained from ATCC (HTB-81). The DU-145 cell line was originally isolated from a metastatic prostate-derived cancer formed in the brain. The cells are adherent, and co-express CXCR4 and CCR3 receptors similar to neuroblasts and neurons. For this experiment, DU-145 cells were cultivated in ATCC-formulated Eagle's Minimum Essential Medium with 10% FBS in 5% CO2 at 37′C. The cells were then subcultivated as follows.\nThe media was removed and discarded. The cell layer was briefly rinsed with 0.25% (w/v) trypsin and 0.5 mM EDTA to remove all remaining trypsin inhibitors from the serum. To each flask, 2-3 ml of trypsin-EDTA solution was added. This was incubated at room temperature.\nThe cells were observed under an inverted microscope until dislodgement (between 10-15 minutes). Shaking was avoided to prevent the cells from clumping. […]\nThe Boyden chamber inserts (Corning) were coated for 2 hours at 37° C. with […] poly-D-lysine (PDL; culture grade from Invitrogen). […] The coated Boyden chamber could then be refrigerated, stored, and ready for cell seeding. […]\nCells were counted and 50,000 cells were seeded into one insert of a 12-well Boyden chamber. […]\nDU-145 cells attached to the lower insert membrane were visualized and counted with standard cell visualization methods using hematoxyclin staining. […]", "note": "Square brackets hold non-standard residues; d marks the D form. Ends that are not written are not given here. Aib = CC(C)(N)C(=O)O"}
{"substance": "Gly Arg Arg Ala Ala Pro Gly Arg Aib Gly Gly (GRRAAPGR[Aib]GG) [NRP2945, synthetic 11-mer peptidomimetic optimized for stability and pharmacokinetics]", "values": [{"measurement": "decrease of migrating cells", "value": 36, "unit": "%"}]}
